Assay results taken from patent US11541056B2, “3-hydroxy-N-(3-(7H-pyrrolo[2,3-d]pyrimidin-4-yl)phenyl)pyrrolidine-1-carboxamide derivatives” (NOVARTIS AG, priority 2018, dated 2023).
Read-outs that look alike come from different tables or passages of the source.

Legend:
Type in all cases: cell-based
TMD8 cells = assay: Resazurin cell viability assay in DLBCL cells (TMD8); conditions: TMD8 cells (BTK dependent), 50% growth inhibition, read-out: TMD8 Prol GI50
Procedure: (§1) Compounds of the invention were tested in the following cellular assays. The terms in Table 1 are defined as follows: DC50 refers to the concentration at which 50% maximal degradation was observed; deg Amax is the extent of degradation and the value refers to the % protein remaining at the concentration at which maximum degradation is seen; Prol GI50 refers to the proliferation data and defines the concentration at which 50% growth inhibition was observed compared to the vehicle treated control at the end of the incubation time. TMD8 cells are BTK dependent and OCI-LY3 cells are BTK independent.
(§2) Cell Viability Assay in DLBCL (Diffuse Large B-Cell Lymphoma) Cells:
(§3) The effect of the BTK compounds on cell proliferation was measured by a Resazurin (Sigma, #R7017) based cell viability assay. TMD8 (BTK compound sensitive) and OCI-LY3 (BTK compound insensitive) cells were incubated for 72 h at 37° C. and 5% CO2 with the corresponding compound. Resazurin is a non-toxic, cell-permeable substrate that is virtually non-fluorescent. Upon entering living cells, Resazurin (Sigma, #R7017) is reduced to highly fluorescent Resorufin. The metabolic activity was assessed by measuring the fluorescence signal (ex. 530 nm; em. 600 nm).
(§4) TMD8 and OCI-Ly3 cells were seeded at day 0 in triplicates at a cell density of 1×10^4 cells per 150 μl/well in a 96-well plate (Costar #3904). Additional plates were prepared, in order to assess the basal metabolic activity of both cell lines at the beginning of the experiment. For these reference plates, Resazurin (Sigma, #R7017) was added to a final concentration of 13 μg/ml 3 h post seeding and was incubated for 2 h at 37° C. and 5% CO2. Following incubation, the fluorescent signal intensity of the 96-well plates was measured on a Mithras LB940 multimode plate reader at 530/600 nm (Berthold Technologies, Germany).
(§5) In parallel, 3 h post-seeding, test-plates were treated with compound at various concentrations, or with vehicle (DMSO) alone for 3 days. The compound addition to the plates was performed by using a HP D300 digital dispenser (TECAN, Switzerland). The compounds were tested in triplicate, 8-point serial dilution (1:4), with a start concentration of 10 μM for OCI-LY3 and 1 μM for the TMD8 cells, respectively. To assess the relative proliferation of the cells, Resazurin was added to each well directly to the medium to a final concentration of 13 μg/ml. The plates were incubated for 2 h at 37° C. and 5% CO2 to result in a 72 h endpoint. Following incubation, the fluorescent signal intensity of the 96-well plates were measured on a Mithras LB940 multimode plate reader at 530/600 nm (Berthold Technologies, Germany). The formation of Resorufin dye directly correlates with the number of metabolically active cells. For each triplicate treatment the mean and standard deviation were calculated and analyzed via curve fitting software to determine the respective compound concentration resulting in 50% growth inhibition (GI50) values. For each compound GI50 values were typically determined from at least 2 entirely independent experiments.
TMD8 cells were acquired through a license agreement with Tokyo Medical and Dental University, Japan. Cells are cultivated in MEM Alpha (BioConcept, #1-23F01-I, lot. LB04262P) supplemented with 10% FCS (HyClone, GE #SH30066.03, lot AB217603), 2 mM L-Glutamine (BioConcept, #5-10K50-H, lot. LA03467P), 1% Pen/Strep (BioConcept, #4-01F00-H, lot. LB04235P).

OCI-LY3 cells = assay: Resazurin cell viability assay in DLBCL cells (OCI-LY3); conditions: OCI-LY3 cells (BTK independent), 50% growth inhibition, read-out: OCI-LY3 Prol GI50
Procedure: as §1, §2, §3, §4, §5
OCI-LY3 cells were acquired through a license agreement with University Health Network, Toronto, Canada. Cells are cultivated in RPMI1640 media (Gibco, #61870-010, lot. 1894759), supplemented with 10% FCS (HyClone, GE #SH30066.03, lot AB217603), 2 mM L-Glutamine (BioConcept, #5-10K50-H, lot. LA03467P), 1 mM Sodium Pyruvate (BioConcept, #5-60F00-H, lot. LB10510P), 10 mM HEPES (Gibco, #15630-056, lot. 1854074), 1% Pen/Strep (BioConcept, #4-01F00-H, lot. LB04235P).

BTK-GFP = target: T1, BTK-GFP (Homo sapiens, UniProt Q06187+Q96SW2); assay: BTK-GFP protein abundance flow cytometry assay in HEK293A cells; conditions: 24 h; for BTK deg Amax %: % protein remaining at concentration of maximum degradation; for DC50: concentration at which 50% maximal degradation was observed
T1 construct: the BTK open reading frame (ORF) was first shuttled from a pcDNA-DEST40-BTK vector (Invitrogen library ID INV_20090504v1); expressed in transfected cells; host or cells: HEK293A cells (Invitrogen R70507), lentiviral transduction with pLenti6-BTK-GFP-Ires-RFP, blasticidin-selected
T1 sequence (Q06187 whole entry): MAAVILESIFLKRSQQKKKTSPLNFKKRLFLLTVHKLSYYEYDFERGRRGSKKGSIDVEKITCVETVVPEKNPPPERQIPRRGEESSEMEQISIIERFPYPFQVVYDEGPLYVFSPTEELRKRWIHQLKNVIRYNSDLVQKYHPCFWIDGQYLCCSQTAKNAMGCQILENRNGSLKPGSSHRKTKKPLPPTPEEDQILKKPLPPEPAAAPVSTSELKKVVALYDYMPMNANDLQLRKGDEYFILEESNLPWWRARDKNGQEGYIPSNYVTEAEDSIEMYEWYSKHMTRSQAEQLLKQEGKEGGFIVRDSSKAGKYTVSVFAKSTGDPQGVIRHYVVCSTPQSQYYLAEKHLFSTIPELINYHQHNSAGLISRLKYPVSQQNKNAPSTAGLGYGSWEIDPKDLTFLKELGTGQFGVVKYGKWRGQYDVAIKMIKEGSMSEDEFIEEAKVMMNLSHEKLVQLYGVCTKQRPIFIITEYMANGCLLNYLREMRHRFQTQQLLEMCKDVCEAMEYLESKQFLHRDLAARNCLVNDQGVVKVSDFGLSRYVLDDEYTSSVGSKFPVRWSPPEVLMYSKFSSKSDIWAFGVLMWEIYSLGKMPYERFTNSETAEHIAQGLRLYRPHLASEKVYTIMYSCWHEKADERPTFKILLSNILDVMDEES
T1 sequence (Q96SW2 whole entry): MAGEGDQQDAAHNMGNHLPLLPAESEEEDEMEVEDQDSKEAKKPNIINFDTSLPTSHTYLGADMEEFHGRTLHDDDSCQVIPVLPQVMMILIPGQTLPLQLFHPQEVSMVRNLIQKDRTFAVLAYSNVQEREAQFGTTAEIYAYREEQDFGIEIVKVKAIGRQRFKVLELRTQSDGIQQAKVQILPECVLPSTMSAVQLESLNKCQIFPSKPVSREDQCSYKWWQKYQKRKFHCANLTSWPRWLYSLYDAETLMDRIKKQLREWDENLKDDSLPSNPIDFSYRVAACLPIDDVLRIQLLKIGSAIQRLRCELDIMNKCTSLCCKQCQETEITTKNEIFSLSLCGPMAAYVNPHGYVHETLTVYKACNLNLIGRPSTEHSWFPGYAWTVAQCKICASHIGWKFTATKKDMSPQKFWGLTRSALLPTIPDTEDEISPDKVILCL
T1 sequence (Q16531 whole entry partner): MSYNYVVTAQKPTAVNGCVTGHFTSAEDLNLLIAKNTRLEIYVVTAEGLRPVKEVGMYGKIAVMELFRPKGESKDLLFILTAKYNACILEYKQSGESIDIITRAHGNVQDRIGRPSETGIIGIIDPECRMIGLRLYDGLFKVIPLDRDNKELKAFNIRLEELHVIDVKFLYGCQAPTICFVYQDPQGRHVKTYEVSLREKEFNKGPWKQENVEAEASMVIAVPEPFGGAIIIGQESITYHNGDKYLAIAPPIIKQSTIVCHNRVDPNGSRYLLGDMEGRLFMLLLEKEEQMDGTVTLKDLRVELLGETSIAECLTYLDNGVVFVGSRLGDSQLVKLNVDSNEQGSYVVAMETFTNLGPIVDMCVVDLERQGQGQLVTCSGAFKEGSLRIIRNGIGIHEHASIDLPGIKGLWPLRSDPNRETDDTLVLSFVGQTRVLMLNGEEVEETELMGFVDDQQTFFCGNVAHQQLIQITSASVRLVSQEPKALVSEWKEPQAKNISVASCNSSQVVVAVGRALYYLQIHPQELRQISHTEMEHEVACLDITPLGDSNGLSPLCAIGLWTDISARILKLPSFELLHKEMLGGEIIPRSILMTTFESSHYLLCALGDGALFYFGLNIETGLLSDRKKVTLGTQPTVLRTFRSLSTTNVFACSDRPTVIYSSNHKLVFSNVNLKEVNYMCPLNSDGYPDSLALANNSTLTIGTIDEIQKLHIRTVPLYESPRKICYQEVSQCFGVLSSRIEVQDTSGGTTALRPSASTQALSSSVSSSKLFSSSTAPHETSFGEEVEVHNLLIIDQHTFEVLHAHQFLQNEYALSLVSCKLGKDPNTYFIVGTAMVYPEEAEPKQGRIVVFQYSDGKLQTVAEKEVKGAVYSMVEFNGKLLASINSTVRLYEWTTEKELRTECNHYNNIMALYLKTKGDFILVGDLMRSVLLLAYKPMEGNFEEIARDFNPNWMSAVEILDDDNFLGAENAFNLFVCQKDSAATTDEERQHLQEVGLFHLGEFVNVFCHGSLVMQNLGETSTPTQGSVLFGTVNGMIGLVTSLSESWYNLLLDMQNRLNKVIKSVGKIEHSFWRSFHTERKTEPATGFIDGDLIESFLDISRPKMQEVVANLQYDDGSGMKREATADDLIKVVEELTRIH
Procedure: as §1
(§6) BTK-GFP and IKZF3-GFP Protein Abundance Flow Cytometry Assay in HEK293A Cells:
(§7) Degradation of BTK or IKZF3 was measured in HEK293A cells (Invitrogen R70507) expressing either BTK-GFP and RFP or IKZF3-GFP and RFP from a stably integrated bicistronic BTK-GFP-iresRFP or IKZF3-GFP-iresRFP construct, respectively. Reduction of the GFP signal measured by flow cytometry served as readout for BTK or IKZF3 degradation after degrader treatment.
(§8) Stable HEK293A-BTK-GFP-iresRFP cells were maintained in complete growth medium (DMEM high Glucose+10% FCS+1% L-Glutamine+1% NEAA+1% NaPyr.) with passaging performed twice per week. On Day 0, HEK293A-BTK-GFP-iresRFP or HEK293A-IKZF3-GFP-iresRFP and HEK293A-iresRFP cells were seeded at 10,000 cells/well in a 96-well microtiter plate in 260 μl complete medium. On Day 1, cells were treated in duplicate with 10-point 1:3 dilution series of compound using the HP D300 Digital Dispenser (Tecan). DMSO concentrations were normalized across the plate to 0.1%. On Day 2, after 24 h of incubation at 37° C., treatment media was discarded, cells rinsed with 100 ul/well PBS and then detached using 40 ul trypsin/well for 5 min. Trypsin was neutralized with 100 ul/well PBS+20% FCS). Flow cytometry was performed on the samples using the BD FACS CANTO II (Becton Dickinson). Cell identification was then performed using forward (FSC) vs. side scatter (SSC) plots. Single cell discrimination is performed using SSC-Width (SSC-W) vs. SSC-Height (SSC-H) plots. Median GFP values for 5,000 single cells are used to determine BTK levels. Median GFP values from HEK293A-iresRFP are used as a background signal and thus defining 0% BTK signal. Median GFP values from DMSO treated HEK293A-BTK-GFP-iresRFP or HEK293A-IKZF3-GFP-iresRFP are used to define 100% BTK signal for subsequent DC50 curves (concentration at 50% BTK degradation). GFP and RFP are read in the channels called FITC and PE, respectively.
(§9) Concentration response curves plotting relative reduction of the GFP signal (measured by flow cytometry) versus 10 compound concentrations (starting concentration 10 μM, 3 fold dilution steps) of the compounds allowed generation of DC50 values.

IKZF3-GFP = target: T2, IKZF3-GFP (Homo sapiens, UniProt Q9UKT9); assay: IKZF3-GFP protein abundance flow cytometry assay in HEK293A cells; conditions: 24 h, Table 1
T2 construct: gateway cloning of IKZF3 from a pENTR221-IKZF3(STOP-Leu) construct into the previously described pLenti6-DEST-GFP-Ires-RFP vector; expressed in transfected cells; host or cells: HEK293A cells (Invitrogen R70507), lentiviral transduction with pLenti6-IKZF3-GFP-Ires-RFP, blasticidin-selected
T2 sequence (Q96SW2 whole entry partner): as the sequence (Q96SW2 whole entry) above
T2 sequence (Q16531 whole entry partner): as the sequence (Q16531 whole entry partner) above
T2 sequence (Q9UKT9 whole entry): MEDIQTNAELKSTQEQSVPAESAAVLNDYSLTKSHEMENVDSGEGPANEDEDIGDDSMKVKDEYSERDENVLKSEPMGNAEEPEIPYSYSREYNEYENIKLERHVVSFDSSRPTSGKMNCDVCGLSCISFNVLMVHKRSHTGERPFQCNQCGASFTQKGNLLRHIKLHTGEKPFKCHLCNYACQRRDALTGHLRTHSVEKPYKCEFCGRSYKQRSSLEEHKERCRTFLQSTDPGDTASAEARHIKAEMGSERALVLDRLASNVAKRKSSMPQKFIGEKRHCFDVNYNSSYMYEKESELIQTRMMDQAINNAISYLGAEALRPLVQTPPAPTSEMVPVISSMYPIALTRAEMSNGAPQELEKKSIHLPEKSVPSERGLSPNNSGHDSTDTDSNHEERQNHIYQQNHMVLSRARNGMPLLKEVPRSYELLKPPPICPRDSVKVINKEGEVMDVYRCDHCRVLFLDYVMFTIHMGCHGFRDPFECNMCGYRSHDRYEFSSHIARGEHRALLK
Procedure: Compounds of the invention were tested in the following cellular assays. […] TMD8 cells are BTK dependent and OCI-LY3 cells are BTK independent.
as §6, §7, §8, §9
Data is shown in Table 2, in which, DC50 refers to the concentration at which 50% maximal degradation was observed; deg Amax is the extent of degradation and the value refers to the % protein remaining at the concentration at which maximum degradation is seen.

SMILES | GI50 (TMD8 cells; Homo sapiens, TMD8, 72 h) [nM] | GI50 (OCI-LY3 cells; Homo sapiens, OCI-Ly3, 72 h) [µM] | BTK deg Amax % (BTK-GFP) [%] | DC50 (BTK-GFP) [nM] | IKZF3 deg Amax % (IKZF3-GFP; % protein remaining at maximum degradation) [%] | DC50 (IKZF3-GFP) [nM] | GI50 (TMD8 cells; 72 h) [nM] | GI50 (OCI-LY3 cells; 72 h) [µM]
COc1ccc(C(=O)N2CCC(CN3CCN(Cc4ccc(-c5cc6c(-c7cc(F)cc(NC(=O)N8C[C@@H](CC(C)C)[C@H](O)C8)c7C)ncnc6[nH]5)cc4)CC3)CC2)cc1N1CCC(=O)NC1=O [Compound 10, (3S,4R)—N-(3-(6-(4-((4-((1-(3-(2,4-Dioxotetrahydropyrimidin-1(2H)-yl)-4-methoxybenzoyl)piperidin-4-yl)methyl)piperazin-1-yl)methyl)phenyl)-7H-pyrrolo[2,3-d]pyrimidin-4-yl)-5-fluoro-2-methylphenyl)-3-hydroxy-4-isobutylpyrrolidine-1-carboxamide] | 2.31 | 4.08 | 7.4 | 15.5 | 99.3 | > 370 |  | 
COc1ccc(C(=O)N2CCC3(CCN(Cc4ccc(-c5cc6c(-c7cc(F)cc(NC(=O)N8CC(O)C(CC(C)C)C8)c7C)ncnc6[nH]5)cc4)CC3)CC2)cc1N1CCC(=O)NC1=O (racemic) [Compound 23, (cis-rac)-N-(3-(6-(4-((9-(3-(2,4-Dioxotetrahydropyrimidin-1(2H)-yl)-4-methoxybenzoyl)-3,9-diazaspiro[5.5]undecan-3-yl)methyl)phenyl)-7H-pyrrolo[2,3-d]pyrimidin-4-yl)-5-fluoro-2-methylphenyl)-3-hydroxy-4-isobutylpyrrolidine-1-carboxamide] |  |  | 3.3 | 6.1 |  |  | 2.36 | > 10
COc1ccc(C(=O)N2CCC3(CCN(CCc4ccc(-c5cc6c(-c7cc(F)cc(NC(=O)N8C[C@@H](CC(C)C)[C@@H](O)C8)c7C)ncnc6[nH]5)cc4)CC3)CC2)cc1N1CCC(=O)NC1=O [Compound 7, (3R,4R)—N-(3-(6-(4-(2-(9-(3-(2,4-Dioxotetrahydropyrimidin-1(2H)-yl)-4-methoxybenzoyl)-3,9-diazaspiro[5.5]undecan-3-yl)ethyl)phenyl)-7H-pyrrolo[2,3-d]pyrimidin-4-yl)-5-fluoro-2-methylphenyl)-3-hydroxy-4-isobutylpyrrolidine-1-carboxamide] | 0.28 | > 10 | 3.7 | 1.5 |  |  |  | 
COc1ccc(C(=O)N2CCC(CCN3CCC(OCc4ccc(-c5cc6c(-c7cc(F)cc(NC(=O)N8CC(O)C(CC(C)C)C8)c7C)ncnc6[nH]5)cc4)CC3)CC2)cc1N1CCC(=O)NC1=O (racemic) [Compound 4, (cis-rac)-N-(3-(6-(4-(((1-(2-(1-(3-(2,4-Dioxotetrahydropyrimidin-1 (2H)-yl)-4-methoxybenzoyl)piperidin-4-yl)ethyl)piperidin-4-yl)oxy)methyl)phenyl)-7H-pyrrolo[2,3-d]pyrimidin-4-yl)-5-fluoro-2-methylphenyl)-3-hydroxy-4-isobutylpyrrolidine-1-carboxamide] | 0.34 | 8.22 | 1.9 | 1.5 |  |  |  | 
